Data published in US20130274342A1, “COMPOSITIONS AND METHODS FOR TREATING COUGH” (Cerecor, Inc., priority 2012, published 2013).

Assays:
[1] = system: Caco-2 cells; assay: Memantine in vitro intestinal permeability (Caco-2 cells); assay type: in vitro ADME
[2] = Stability of memantine in alkaline conditions, solution and lozenge (Example 5); assay type: physicochemical
Protocol: The stability of memantine is studied within a pH range in both solution and in a lozenge dosage form. It is determined that when memantine is included in a buffer solution at a pH 8.0 or higher, memantine degrades and/or precipitates out of solution. It is determined that in a solution with a pH of 8.0, only about 85.3 percent of memantine is recovered; in a solution with a pH of 9.0, only about 29.8 percent of memantine is recovered; and in a solution with a pH of 10.0, only about 0.7 percent of memantine is recovered. In a solution with a pH of 1.0, it is determined that 97.6 percent of memantine is recovered and thus memantine is determined to be stable. It is also determined that memantine is unstable in a lozenge dosage form when it is in contact with an alkalinizing agent. It is determined that when memantine and sodium hydroxide are added together in a lozenge dosage form, only about 40% to about 60% memantine is recovered, with the remaining memantine degrading and/or precipitating out during the lozenge preparation process. It is determined that when memantine and sodium carbonate are added together in a lozenge dosage form, only about 40% to about 60% memantine is recovered, with the remaining memantine degrading and/or precipitating out during the lozenge preparation process.

[3] = cited from earlier work
[4] = absorption limited to the distal small bowel; cited from earlier work
[5] = Pharmacokinetic evaluation of memantine with sodium hydroxide, menthol and optionally NH4Cl in male beagle dogs (Example 2); assay type: in vivo; details: 0.4 mg/kg, Route Oral
Protocol: The pharmacokinetics of memantine were evaluated after buccal administration in male beagle dogs. Memantine was formulated in water, 3.3 mg/mL sodium hydroxide in water, or 7.5 mg/mL sodium carbonate in water. All dogs received a 0.4 mg/kg dose of memantine. Plasma levels of memantine were determined by LC-MS/MS. Pharmacokinetic parameters were determined for the memantine plasma data.
For dosing, dogs were anesthetized with an IV injection of ketamine/diazepam, and maintained by isoflurane intubation during the buccal administration. The dosing solution was pipetted into a circular cylinder to concentrate the dosing solution on one area of the mucosa. At just prior to the 15 minute sample time point, the oral cavity was rinsed with 5 mL of water and dried with gauze. Immediately after the rinse, the 15 minute sample was collected.
The pharmacokinetics of memantine were evaluated after buccal administration in male beagle dogs using procedures similar to those used in Example 1, except that menthol or menthol and ammonium chloride where co-administered with the sodium hydroxide (Table 2). Table 2 provides a summary of pharmacokinetic findings, comparing memantine compositions containing an alkalinizing agent to increase local pH and a permeation enhancer (menthol), and optionally a urinary acidifying agent. […] Further addition of a urinary acidifying agent (e.g., NH4Cl) further reduces T1/2, indicating more rapid elimination of memantine.

[6] = Memantine ex vivo buccal permeability (porcine buccal mucosa); assay type: in vitro ADME
[7] = system: citric acid-induced cough; assay: Citric acid-induced cough in guinea pigs, oral memantine vs vehicle; assay type: in vivo; details: oral administration, dose response (FIG. 2)

Question: For polysorbate 80, which “effect as permeation enhancer on memantine Caco-2 permeability” value ([1]; FIG. 6) is on record?
Answer: ineffective

Question: Which memantine recovered ([2]; solution with a pH of 1.0) does the source give for `CC12CC3CC(C)(C1)CC(N)(C3)C2` [memantine, 3,5-dimethyl-1-adamantanamine] here?
Answer: 97.6%

Question: And the memantine recovered ([2]; solution with a pH of 8.0)?
Answer: about 85.3%

Question: And the memantine recovered ([2]; solution with a pH of 9.0)?
Answer: about 29.8%

Question: And the memantine recovered ([2]; solution with a pH of 10.0)?
Answer: about 0.7%

Question: What about the “dissociation constant (pKa)” value [3] of the same compound?
Answer: ~10

Question: And the “time to maximum plasma concentration (Tmax)” value [4]?
Answer: 4 to 7 h

Question: And the “AUC0-∞” value ([5]; 3.3 mg/ml sodium hydroxide + 5 mg/ml menthol)?
Answer: 126 ng·h/mL

Question: And the Cmax/Dose ([5]; 3.3 mg/ml sodium hydroxide + 5 mg/ml menthol + 20 mg/kg NH4Cl)?
Answer: 26.03

Question: And the AUC0-t ([5]; Control)?
Answer: 120 ng·h/mL

Question: What about the “increase in permeability of memantine in porcine buccal mucosa” value ([6]; increase in pH from 5.5 to 9.0 (FIG. 4)) of the same compound?
Answer: over 100 fold

Question: And the “increase in permeability of memantine in porcine buccal mucosa” value ([6]; increase in pH from 8.0 to 9.0 (FIG. 5))?
Answer: about 3.8 fold

Question: What about the “efficacy on citric acid-induced cough relative to vehicle control” value [7] of the same compound?
Answer: dose-dependent antitussive effects

Question: What about the “permeability of memantine in Caco-2 cells” value ([1]; increase in pH from pH 5.0 to 10.5 (FIG. 3)) of the same compound?
Answer: gradually increases
